Laboratory results as given in patent US10961279B2 (priority 2011, dated 2021).

Tested on: CTLL-2 cells
Type: cell-based

GLFAGFIENGWEGCGGEKEKEK [non-IS #2]
effect of the dimeric peptides on proliferation of CTLL-2 cells (synthesis of new DNA): no significant effect

GLFGAAGFIENGWEGCGGEKEKEK [non-IS #1]
effect of the dimeric peptides on proliferation of CTLL-2 cells (synthesis of new DNA): much less
